Results published in patent US20040176431A1, “Antiproliferative 2-(sulfo-phenyl)-aminothiazole derivatives and pharmaceutical compositions, and methods for their use” (Pfizer, Inc., priority 2003, published 2004).
Structures can show the parent of a compound that is named as a salt.

Columns and labels:
[1] = molecular target: T1, CDK2/cyclin A (Homo sapiens, UniProt P24941); assay: Inhibition of CDK2/Cyclin A retinoblastoma kinase activity; assay type: biochemical; details: apparent Ki, Rb fragment substrate
T1 construct: made in house; host or cells: CDK2: insect cells (baculovirus); cyclin A: E. coli, then limited proteolysis
Method: Cyclin-dependent kinase activity was measured by quantifying the enzyme-catalyzed, time-dependent incorporation of radioactive phosphate from [^32P]ATP or [^33P]ATP into a protein substrate. Unless noted otherwise, assays were performed in 96-well plates in a total volume of 50 μL, in the presence of 10 mM HEPES (N-[2-hydroxyethyl]piperazine-N′-[2-ethanesulfonic acid]) (pH 7.4), 10 mM MgCl2, 25 μM adenosine triphosphate (ATP), 1 mg/mL ovalbumin, 5 μg/mL leupeptin, 1 mM dithiothreitol, 10 mM β-glycerophosphate, 0.1 mM sodium vanadate, 1 mM sodium fluoride, 2.5 mM ethylene glycol-bis(β-aminoethyl ether)-N,N,N′N′-tetraacetic acid (EGTA), 2% (v/v) dimethylsulfoxide, and 0.03-0.4 μCi [^32/33P]ATP per reaction. Reactions were initiated with enzyme, incubated at 30° C., and terminated after 20 minutes by the addition of ethylenediaminetetraacetic acid (EDTA) to 250 mM. The phosphorylated substrate was then captured on a nitrocellulose or phosphocellulose membrane using a 96-well filtration manifold, and unincorporated radioactivity was removed by repeated washing with 0.85% phosphoric acid. Radioactivity was quantified by exposing the dried membranes to a phosphorimager.
Inhibition was measured relative to control wells that contained all reaction components including 2% (v/v) DMSO but no compound, after subtraction of background radioactivity measured in the absence of enzyme. Apparent Ki values of discrete compounds were measured by assaying enzyme activity in the presence of different inhibitor compound concentrations and subtracting the background radioactivity measured in the absence of enzyme. The kinetic parameters (kcat, Km for ATP) were measured for each enzyme under the usual assay conditions by determining the dependence of initial rates on ATP concentration. Inhibition data were fit to an equation for competitive inhibition using Kaleidagraph (Synergy Software), or were fit to an equation for competitive tight-binding inhibition using the software KineTic (BioKin, Ltd.).
CDK2 was purified using published methodology (Rosenblatt et al., J. Mol. Biol., 230, 1317-1319 (1993)) from insect cells that had been infected with a baculovirus expression vector. Cyclin A was purified from E. coli cells expressing full-length recombinant cyclin A, and a truncated cyclin A construct was generated by limited proteolysis and purified as described previously (Jeffrey et al., Nature, 376, 313-320 (1995)). A complex of CDK2 and proteolyzed cyclin A was prepared and purified by gel filtration. The substrate for this assay was the same Rb substrate fragment used for the CDK4 assays, and the methodology of the CDK2/delta cyclin A and the CDK4/delta cyclin D3 assays was essentially the same, except that CDK2 was present at 10 nM or 19 nM. The duration of the assay was 60 or 75 minutes, during which the time-dependence of product formation was linear and initial rate conditions were met.

[2] = molecular target: T2, CDK4/cyclin D3 (Homo sapiens, UniProt P11802); assay: Inhibition of CDK4/Cyclin D retinoblastoma kinase activity; assay type: biochemical; details: apparent Ki, Rb fragment substrate
T2 construct: made in house; host or cells: insect cells (baculovirus co-infection)
T2 sequence (P11802 whole entry, the tested form may be a part): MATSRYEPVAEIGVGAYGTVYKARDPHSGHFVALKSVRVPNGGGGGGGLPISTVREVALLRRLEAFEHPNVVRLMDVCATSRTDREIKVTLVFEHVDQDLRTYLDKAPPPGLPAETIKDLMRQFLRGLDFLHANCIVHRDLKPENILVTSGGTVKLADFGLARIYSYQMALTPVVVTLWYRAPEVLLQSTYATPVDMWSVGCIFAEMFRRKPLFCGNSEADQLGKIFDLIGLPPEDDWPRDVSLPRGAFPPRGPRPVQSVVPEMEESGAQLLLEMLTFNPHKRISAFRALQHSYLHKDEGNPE
T2 sequence (P30281 1-264 partner limits assumed): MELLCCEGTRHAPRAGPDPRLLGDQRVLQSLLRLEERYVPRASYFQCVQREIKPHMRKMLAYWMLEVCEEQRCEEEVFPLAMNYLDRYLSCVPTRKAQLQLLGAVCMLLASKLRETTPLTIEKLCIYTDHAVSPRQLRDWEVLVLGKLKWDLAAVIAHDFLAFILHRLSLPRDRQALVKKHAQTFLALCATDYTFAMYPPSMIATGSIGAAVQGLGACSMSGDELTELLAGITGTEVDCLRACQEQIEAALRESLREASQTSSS
Outline: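 Apparent Ki derived by fitting activity at varied inhibitor concentrations to competitive (or competitive tight-binding) inhibition equations, background without enzyme subtracted. Radiometric filter-binding read-out of Rb(386-928) phosphorylation by 5 nM CDK4/cyclin D3(1-264); 25 μM ATP, pH 7.4, 2% DMSO, 30° C., 20 min, extended to 60 min for tight binders.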

[3] = system: HCT-116 cells; assay: Inhibition of cell growth (MTT tetrazolium salt assay); assay type: cell-based; details: Homo sapiens; for IC50: read-out: HCT116 IC50; for IC90: read-out: HCT116 IC90
Method: Inhibition of cell growth was measured using the tetrazolium salt assay, which is based on the ability of viable cells to reduce 3-(4,5-dimethylthiazol-2-yl)-2,5-[2H]-diphenyltetrazolium bromide (MTT) to formazan (Mosmann, J. Immunol. Meth., 65, 55-63 (1983)). The water-insoluble purple formazan product was then detected spectrophotometrically. HCT-116 cells were grown in 96-well plates. Cells were plated in the appropriate medium at a volume of 135 μl/well in either McCoy's 5A Medium. Plates were incubated for four hours before addition of inhibitor compounds. Different concentrations of inhibitor compounds were added in 0.5% (v/v) dimethylsulfoxide (15 μL/well), and cells were incubated at 37° C. (5% CO2) for four to six days (depending on cell type). At the end of the incubation, MTT was added to a final concentration of 0.2 mg/mL, and cells were incubated for 4 hours more at 37° C. After centrifugation of the plates and removal of medium, the absorbance of the formazan (solubilized in dimethylsulfoxide) was measured at 540 nm. […] All results were compared to control cells treated only with 0.5% (v/v) dimethylsulfoxide.

| Ki [1] [nM] | Ki [2] [nM] | IC50 [3] [nM] | IC90 [3] [nM] | SMILES |
| --- | --- | --- | --- | --- |
| 13 | 17 | 440 | 1200 | Nc1nc(Nc2ccc(S(=O)(=O)NCCc3cccs3)cc2)sc1C(=O)c1c(F)cccc1F [A(23), 4-[4-Amino-5-(2,6-difluoro-benzoyl)-thiazol-2-ylamino]-N-(2-thiophen-2-yl-ethyl)-benzenesulfonamide] |
| 5 | 18 | 1200 | 2600 | Nc1nc(Nc2ccc(S(=O)(=O)NCCc3ccccn3)cc2)sc1C(=O)c1c(F)cccc1F [A(24), 4-[4-Amino-5-(2,6-difluoro-benzoyl)-thiazol-2-ylamino]-N-(2-pyridin-2-yl-ethyl)-benzenesulfonamide] |
| 4.1 | 16 | 3400 | 5000 | Nc1nc(Nc2ccc(S(=O)(=O)NCCCN3CCCC3=O)cc2)sc1C(=O)c1c(F)cccc1F [A(25), 4-[4-Amino-5-(2,6-difluoro-benzoyl)-thiazol-2-ylamino]-N-[3-(2-oxo-pyrrolidin-1-yl)-propyl]-benzenesulfonamide] |
| 2.9 | 3 | 850 | 3300 | CCN(CC)CCCCNS(=O)(=O)c1ccc(Nc2nc(N)c(C(=O)c3c(F)cccc3F)s2)cc1 [A(26), 4-[4-Amino-5-(2,6-difluoro-benzoyl)-thiazol-2-ylamino]-N-(4-diethylamino-butyl)-benzenesulfonamide] |
| 4.6 | 57 | 400 | 1000 | Nc1nc(Nc2ccc(S(=O)(=O)NCc3cccs3)cc2)sc1C(=O)c1c(F)cccc1F [A(27), 4-[4-Amino-5-(2,6-difluoro-benzoyl)-thiazol-2-ylamino]-N-thiophen-2-ylmethyl-benzenesulfonamide] |
| 2.6 | 12 | 1200 | 2800 | Nc1nc(Nc2ccc(S(=O)(=O)NCCCCCO)cc2)sc1C(=O)c1c(F)cccc1F [A(28), 4-[4-Amino-5-(2,6-difluoro-benzoyl)-thiazol-2-ylamino]-N-(5-hydroxy-pentyl)-benzenesulfonamide] |
| < 5 | 15 | 190 | 560 | Cc1ccc(CNS(=O)(=O)c2ccc(Nc3nc(N)c(C(=O)c4c(F)cccc4F)s3)cc2)s1 [A(29), 4-[4-Amino-5-(2,6-difluoro-benzoyl)-thiazol-2-ylamino]-N-(5-methyl-thiophen-2-ylmethyl)-benzenesulfonamide] |
| < 5 | 9 | 310 | 640 | Cc1ccc(C(C)NS(=O)(=O)c2ccc(Nc3nc(N)c(C(=O)c4c(F)cccc4F)s3)cc2)o1 (centres unmarked) [A(30), 4-[4-Amino-5-(2,6-difluoro-benzoyl)-thiazol-2-ylamino]-N-[1-(5-methyl-furan-2-yl)-ethyl]-benzenesulfonamide] |
| < 5 | 16 | 140 | 380 | Nc1nc(Nc2ccc(S(=O)(=O)NCCCc3ccccc3)cc2)sc1C(=O)c1c(F)cccc1F [A(32), 4-[4-Amino-5-(2,6-difluoro-benzoyl)-thiazol-2-ylamino]-N-(3-phenyl-propyl)-benzenesulfonamide] |
| < 10 | 5.1 | 780 | 1800 | Nc1nc(Nc2ccc(S(=O)(=O)NCc3cc4ccccc4o3)cc2)sc1C(=O)c1c(F)cccc1F [A(34), 4-[4-Amino-5-(2,6-difluoro-benzoyl)-thiazol-2-ylamino]-N-benzofuran-2-ylmethyl-benzenesulfonamide] |
| 4.9 | 35 | 1200 | 3800 | CC(C)CCCCNS(=O)(=O)c1ccc(Nc2nc(N)c(C(=O)c3c(F)cccc3F)s2)cc1 [A(37), 4-[4-Amino-5-(2,6-difluoro-benzoyl)-thiazol-2-ylamino]-N-(5-methyl-hexyl)-benzenesulfonamide] |
| 0.48 | 3.9 | – | – | Cn1cncc1CNS(=O)(=O)c1ccc(Nc2nc(N)c(C(=O)c3c(F)cccc3F)s2)cc1 [A(38), 4-[4-Amino-5-(2,6-difluoro-benzoyl)-thiazol-2-ylamino]-N-(1-methyl-1H-imidazol-5-ylmethyl)-benzenesulfonamide Trifluoroacetic Acid Salt] |
| 430 | – | – | – | CS(=O)(=O)c1cccc(Nc2nc(N)c(C(=O)c3c(Cl)cccc3Cl)s2)c1 [AA(1), 4-Amino-5-(2,6-dichloro-benzoyl)-2-(3-methanesulfonyl-phenylamino)-thiazole] |
| 190 | – | – | – | Nc1nc(Nc2ccc(S(=O)(=O)c3ccncc3)cc2)sc1C(=O)c1c(Cl)cccc1Cl [AA(3), 4-Amino-5-(2,6-dichlorobenzoyl)-2-[4-(pyridine-4-sulfonyl)-phenylamino]-thiazole] |
| – | – | 400 | 1400 | CNS(=O)(=O)c1ccc(Nc2nc(N)c(C(=O)c3c(F)cccc3F)s2)cc1 [C(108)*, reference compound] |
| – | – | 1600 | 3000 | CN(C)S(=O)(=O)c1ccc(Nc2nc(N)c(C(=O)c3c(F)cccc3F)s2)cc1 [C(109)*, reference compound] |
| – | – | 980 | 2100 | Nc1nc(Nc2ccc(S(N)(=O)=O)cc2)sc1C(=O)c1c(F)cc(F)cc1F [C(115)*, reference compound] |
| 11 | 62 | – | – | Nc1nc(Nc2ccc(S(=O)(=O)NCc3cc(Cl)ccc3Cl)cc2)sc1C(=O)c1c(F)cccc1F [Example A(7), 4-[4-Amino-5-(2,6-difluoro-benzoyl)-thiazol-2-ylamino]-N-(2,5-dichloro-benzyl)-benzenesulfonamide] |
| – | 22 | 240 | 620 | Nc1nc(Nc2ccc(S(=O)(=O)NCc3ccco3)cc2)sc1C(=O)c1c(F)cccc1F [Example A(22), 4-[4-Amino-5-(2,6-difluoro-benzoyl)-thiazol-2-ylamino]-N-furan-2-ylmethyl-benzenesulfonamide] |
| – | 89 | – | – | Nc1nc(Nc2ccc(Sc3ccncc3)cc2)sc1C(=O)c1c(Cl)cccc1Cl [W(1), 4-Amino-5-(2,6-dichloro-benzoyl)-2-[4-(pyridin-4-ylthio)-phenylamino]-thiazole] |
| 500 | 190 | – | – | Nc1nc(Nc2ccc(Sc3ccccn3)cc2)sc1C(=O)c1c(Cl)cccc1Cl [W(2), 4-Amino-5-(2,6-dichloro-benzoyl)-2-[4-(pyridin-2-ylthio)-phenylamino]-thiazole] |
| 520 | – | – | – | Nc1nc(Nc2ccc(S)cc2)sc1C(=O)c1c(Cl)cccc1Cl [X(1), 4-Amino-5-(2,6-dichloro-benzoyl)-2-(4-mercapto-phenylamino)-thiazole] |
| 1600 | – | – | – | Nc1nc(Nc2cccc(S)c2)sc1C(=O)c1c(Cl)cccc1Cl [X(2)] |
| 450 | – | – | – | C[S+]([O-])c1cccc(Nc2nc(N)c(C(=O)c3c(Cl)cccc3Cl)s2)c1 (centres unmarked) [Z(1), 4-Amino-5-(2,6-benzoyl)-2-(3-methanesulfinyl-phenylamino)-thiazole] |
